Laboratory results reported in patent US4104390A, “Thieno [2,3-c] and [3,2-c] pyridines” (Parcor, priority 1976, dated 1978).
Like-named read-outs stand apart in the source and are kept apart here.

Legend:
[1] = LD50, intravenous route, mice; conditions: mouse, in vivo
[2] = tested on: ovalbumen-induced systemic edema; experiment: Ovalbumen-induced systemic edema method; type: in vivo; conditions: Rattus norvegicus, po, rats, 100 mg/kg orally 1 hour before and with ovalbumen
Procedure: (b) Ovalbumen-induced systemic edema method
Simultaneous injection of 1 ml ovalbumen and 0.5 ml of a 1% aqueous Evans Blue solution is effected in rats. On the other hand, the animals of the treated group are administered orally 100 mg/kg of the test derivative one hour prior to ovalbumen administration and simultaneously with said administration. The intensity of the phenomenon thus induced is scored according to a scale from 1 to 5 depending on the progress of the inflammatory syndrome. The mean intensity of the edem and the percent decrease of the edema reaction with respect to the control group are thus determined as a function of time.

[3] = tested on: carrageenin-induced localized edema; experiment: Carrageenin-induced localized edema method; type: in vivo; conditions: Rattus norvegicus, po, rats, 100 mg/kg orally at -1, 0, 1 and 2.5 hours
Procedure: (a) Carrageenin-induced localized edema method
0.1 ml of a 1% carrageenin solution is injected in the metatarsal flexor muscles of the right hind limb of rats at time 0. The animals of the treated group are additionally orally administered 100 mg/kg of the test derivative, respectively one hour prior to injection of the phlogogenic agent, simultaneously with said injection, and then 1 hour and 2.5 hours thereafter. The determinations effected by means of a ROCH micrometer at times 0, 1 hour, 2 hours, 3 hours and 5 hours after carrageenin administration make it possible to determine, as a function of time, the percent anti-inflammatory activity with respect to the reference group.

[4] = tested on: collagen-induced blood-platelet aggregation; experiment: Collagen-induced blood-platelet aggregation; type: in vivo, Wistar rats; conditions: Rattus norvegicus, po; rats, 100 mg/kg orally, 3 hours after treatment, collagen (bovine tendon extract), with respect to control group; read-out: Percent inhibition of blood-platelet aggregation, Collagen
Procedure: (§1) Blood is taken from the jugular vein of Wistar rats. From this citrated blood, and after centrifugation, is reconstituted a plasma containing 600,000 ± 20,000 blood-platelets per ml which is used in all aggregation determinations.
(§2) 0.4 ml plasma is placed in a siliconized tube provided with a magnet bar, also siliconized. The tube is introduced into an aggregometer coupled with an apparatus for recording optical density variations. When light transmission has reached a stable value, 0.5 ml of a solution containing 10 μM A.D.P. (Adenosine-Di-Phosphate) is introduced into the tube.
(§3) Blood-platelet aggregation causes an increase of light transmission followed by a decrease subsequent to the deaggregation phase.
(§4) The maximal optical density variation thus determined characterizes the intensity of the aggregation.
The A.D.P. solution is substituted with a collagen solution (bovine tendon extract).
(§5) Different groups of 20 rats are used, each group being orally administered a test derivative at a dosage of 100 mg/kg.

[5] = tested on: A.D.P.-induced blood-platelet aggregation; experiment: A.D.P.-induced blood-platelet aggregation; type: in vivo, Wistar rats; conditions: Rattus norvegicus, po; rats, 100 mg/kg orally, 3 hours after treatment, 10 μM A.D.P. solution, with respect to control group; read-out: Percent inhibition of blood-platelet aggregation, A.D.P.
Procedure: as §1, §2, §3, §4, §5

[6] = 2 hours after ovalbumen, read-out: Percent anti-inflammatory activity after 2 hours
[7] = 3 hours after ovalbumen, read-out: Percent anti-inflammatory activity after 3 hours
[8] = 1 hour after carrageenin, read-out: Percent anti-inflammatory activity after 1 hour
[9] = 2 hours after carrageenin, read-out: Percent anti-inflammatory activity after 2 hours
[10] = 3 hours after carrageenin, read-out: Percent anti-inflammatory activity after 3 hours
[11] = 5 hours after carrageenin, read-out: Percent anti-inflammatory activity after 5 hours

| SMILES | LD50 at 24 h [1] | inhibition in vivo at 100 mg/kg [2, 6] | inhibition in vivo at 100 mg/kg [2, 7] | inhibition in vivo at 100 mg/kg [3, 8] | inhibition in vivo at 100 mg/kg [3, 9] | inhibition in vivo at 100 mg/kg [3, 10] | inhibition in vivo at 100 mg/kg [3, 11] | inhibition at 100 mg/kg [4] | inhibition at 100 mg/kg [5] |
| --- | --- | --- | --- | --- | --- | --- | --- | --- | --- |
| CC1NCc2sccc2C1c1ccccc1 (centres unmarked) [derivative n°1, 5-Methyl-4-phenyl-4,5,6,7-tetrahydro-thieno[2,3-c]pyridine] | 63 mg/kg | 47% | 54% | 37% | 43% | 45% | 47% | 96.2% | 64.9% |
| CN1Cc2sccc2C(c2ccccc2)C1 (centres unmarked) [derivative n°5, 6-Methyl-4-phenyl-4,5,6,7-tetrahydro-thieno[2,3-c]pyridine] | 61 mg/kg | 44% | 51% | 37% | 45% | 50% | 51% | 93.8% | 63.6% |
| c1ccc(C2CNCc3sccc32)cc1 (centres unmarked) [derivative n°3, 4-Phenyl-4,5,6,7-tetrahydro-thieno[2,3-c]pyridine] | 69 mg/kg | 52% | 59% | 41% | 46% | 50% | 51% | 95.6% | 64.1% |
| Fc1ccccc1CN1Cc2sccc2C(c2ccccc2)C1 (centres unmarked) [derivative n°13, 6-o.Fluorobenzyl-4-phenyl-4,5,6,7-tetrahydrothieno[2,3-c]pyridine] | – | 43% | 50% | 46% | 51% | 55% | 57% | 94.8% | 64.3% |
| N#Cc1ccccc1CN1Cc2sccc2C(c2ccccc2)C1 (centres unmarked) [derivative n°8, 6-o.Cyanobenzyl-4-phenyl-4,5,6,7-tetrahydro-thieno[2,3-c]pyridine] | – | 46% | 54% | 42% | 49% | 53% | 56% | 92.5% | 63.2% |
| Clc1ccccc1CN1Cc2sccc2C(c2ccccc2)C1 (centres unmarked) [derivative n°11, 6-o.Chlorobenzyl-4-phenyl-4,5,6,7-tetrahydrothieno[2,3-c]pyridine] | – | 51% | 58% | 39% | 45% | 49% | 55% | 91.2% | 62.8% |
| COc1ccc(C2CN(Cc3ccccc3Cl)Cc3sccc32)cc1 (centres unmarked) [derivative n°7, 6-o-Chlorobenzyl-4-p-methoxyphenyl-4,5,6,7-tetrahydro-thieno[2,3-c]pyridine] | – | 52% | 59% | 44% | 50% | 54% | 59% | 90.7% | 61.5% |
| c1ccc(CN2Cc3ccsc3C(c3ccccc3)C2)cc1 (centres unmarked) [derivative n°24, 5-Benzyl-7-phenyl-4,5,6,7-tetrahydro-thieno[3,2-c]pyridine] | – | 42% | 47% | 41% | 47% | 50% | 53% | 93% | 62.6% |
| O=[N+]([O-])c1ccc(CN2Cc3sccc3C(c3ccccc3)C2)cc1 (centres unmarked) [derivative n°17, 6-p.Nitrobenzyl-4-phenyl-4,5,6,7-tetrahydro-thieno[2,3-c]pyridine] | – | 43% | 51% | 42% | 50% | 54% | 58% | 95% | 63.9% |
| COC(=O)c1ccccc1CN1Cc2sccc2C(c2ccccc2)C1 (centres unmarked) [derivative n°15, 6-o.Methoxycarbonylbenzyl-4-phenyl-4,5,6,7-tetrahydro-thieno[2,3-c]pyridine] | – | 54% | 62% | 39% | 47% | 50% | 54% | 92.3% | 61.7% |
| Clc1ccc(C2CN(Cc3ccccc3Cl)Cc3sccc32)cc1 (centres unmarked) [derivative n°9, 6-o.Chlorobenzyl-4-p.chlorophenyl-4,5,6,7-tetrahydro-thieno[2,3-c]pyridine] | – | 48% | 56% | 44% | 52% | 55% | 57% | 93.8% | 64.3% |
| CC1C(c2ccccc2)c2sccc2CN1Cc1ccc([N+](=O)[O-])cc1 (centres unmarked) [derivative n°22, 6-Methyl-5-p.nitrobenzyl-7-phenyl-4,5,6,7-tetrahydro-thieno[3,2-c]pyridine] | – | 50% | 57% | 41% | 49% | 53% | 56% | 94.6% | 63.4% |
| CN1Cc2ccsc2C(c2ccccc2)C1 (centres unmarked) [derivative n°6, 5-Methyl-7-phenyl-4,5,6,7-tetrahydro-thieno[3,2-c]pyridine] | – | 47% | 55% | 45% | 52% | 56% | 58% | 90.4% | 61.7% |
